Measurements: patent publication US20040219103A1, “Methods useful for the diagnosis, imaging and treatment of tumors” (priority 2003, published 2004)

Legend:
JJ5 breast cancer cells [1] = test: Growth inhibition assay against JJ5 breast cancer cells; type: cell-based, human; conditions: 4 days culture
Procedure: Growth medium was added and the cells were cultured at 37° C./5% CO^2 for 4 days. The cells were then recovered by trypsinization and counted in a hemocytometer. Control dishes contained cells cultured in growth medium containing ^111In-DTPA or growth medium alone.

JJ5 breast cancer cells [2] = test: Cytotoxicity (colony-forming) assay against JJ5 breast cancer cells; type: cell-based, human; conditions: 14 days
Procedure: The number of cells seeded was varied from 3×10^4 to 3×10^6 cells to obtain approximately 400 viable colonies/dish taking into account the plating efficiency and the expected level of cytotoxicity. Control dishes contained JJ5 breast cancer cells which were incubated with normal saline. Growth medium was added and the cells were cultured at 37° C./5% CO^2 for 14 days. The growth medium was removed and the colonies were stained with methylene blue (1% in a 1:1 mixture of ethanol and water) then washed twice. The number of colonies per dish was counted using a manual colony counter (Manostat Corp). The plating efficiency was calculated by dividing the number of colonies observed by the number of cells seeded in each dish.

[3] = tested on: JJ5 Breast Cancer cells (EGFR); test: Binding of EGF-^111In-labeled transferrin compound to breast cancer cells (radioligand binding, kinetics, retention); set-up: species or system human
Procedure: For the normal breast cell line HBL-100, 8000 EGFR/cell has been reported. The expression of EGFR in breast cancer cell lines has a reported range of 800 EGFR/cell for MCF-7 cells to 10^6 EGFR/cell for MDA-MB-468 cells. […] Utilizing the Auger electron emitter ^111In was used in the initial experiments to illustrate the utility of the invention using EGF-^111In-labeled transferrin compounds. The EGF-^111In-labeled transferrin (0.25-80 ng) was incubated with 1.5×10^6 cells/dish JJ5 Breast Cancer (prepared from BCBM JJ5) cells in 1 mL of 0.1% human serum albumin in 35 mm multiwell culture dishes at 37° C. for 30 minutes. The cells were transferred to a centrifuge tube and centrifuged. The cell pellet was separated from the supernatant and counted in a g-scintillation counter to determine bound (B) and free (F) radioactivity. Non-specific binding was determined by conducting the assay in 100 nM hEGF. […] Internalized fraction was measured by determining the proportion of radioactivity which could not be displaced from the cell surface by 100 nM hEGF. Cell-associated binding (surface-binding and intracellular accumulation) was expressed as a percentage of medium radioactivity bound per mg of cell study protein.

Compound	growth inhibition of the JJ5 cells compared to the medium control (JJ5 breast cancer cells [1]; 3.5 pCi/cell) [%]	cell killing (JJ5 breast cancer cells [2]; <6 pCi/cell)	internalization by cancer cells (in words) ([3]; JJ5 cells)	number of binding sites ([3]; JJ5 cells)	binding by the breast cancer cells (kinetics, in words) ([3]; JJ5 cells, 37° C.)	time retained by the breast cancer cells ([3]; JJ5 cells, 37° C.)	affinity constant for binding to JJ5 cells ([3]; JJ5 cells, 37° C., 30 minutes) [L/mol]	^111In radioactivity lost from the cells in vitro ([3]; over a 24 hour period at 37° C.) [%]	growth inhibition of the JJ5 cells compared to the medium control (JJ5 breast cancer cells [1]; 3.4 pCi/cell) [%]	reduction in cell survival for JJ5 cells (JJ5 breast cancer cells [2]; 8 pCi/cell) [%]
[In+3].[O-]c1cccc2cccnc12.[O-]c1cccc2cccnc12.[O-]c1cccc2cccnc12 [^111In-oxine, reference compound]	91	greater than 99%								
EGF-^111In-labeled transferrin compound: human EGF linked via PEG3400-biotin or peptide linker-biotin to streptavidin-transferrin, transferrin labeled with ^111In			rapidly internalized	2.7×10^6	rapidly bound	at least 24 hours	8e+08	< 8	83	99
